Measurements reported in patent US20200330409A1, “INJECTABLE COMPOSITION COMPRISING HYALURONIDASE FOR REMOVING LOCAL FAT” (priority 2019, published 2020).

System: local fat
Assay: Clinical trials on hyaluronidase unit dose (efficacy threshold, diffusion range)
Assay type: in vivo
Details: per injection
Protocol: It was ascertained from clinical trials that at the hyaluronidase unit dose of 300 IU to 600 IU, it was possible to ensure adequate fat removing effect while minimizing side effects. It was also shown in clinical trials that at the above dose range, if the injectable composition is administered in a volume of 1 cc containing 300 IU of hyaluronidase, the diameter of the diffusion range is about 1 cm. Thus, with the hyaluronidase dose set at 300 IU to 600 IU, by injecting the composition at a volume of 0.5 to 2 cc depending on the hyaluronidase dose and with an interval of 0.5 to 1.5 cm between injection points, injection at narrow intervals is possible, and consequently, lipolysis occurs evenly. Furthermore, a lifting effect occurs concomitantly where skin resilience is improved by the promotion of collagen production through the stimulation of skin by the injection needle. […] Thus, by administering an injectable composition of the present disclosure having the above compositional ranges, the side effects from drug use are minimized while fat removal over a wide area can be carried out using minimal volumes. It was shown in clinical trials that at a hyaluronidase dose of 300 IU, the diameter of the diffusion range for the injectable composition is about 1 cm. […]

hyaluronidase
minimum amount of hyaluronidase exhibiting efficacy: 300 IU
